Measured values published in patent publication US10052320B2, “Substituted quinoxalines as FGFR kinase inhibitors” (ASTEX THERAPEUTICS LIMITED, priority 2011, dated 2018).
Like-named read-outs stand apart in the source and are kept apart here.

Columns and labels:
Type in all cases: cell-based
[1] = test system: Ba/F3-FGFR3-transfected cells in the presence of 10 ng/ml murine IL3; assay: Ba/F3-FGFR3 (plus IL3) cellular proliferation counterscreen, Alamar Blue; conditions: Mus musculus
Summary of the method: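 Ba/F3-FGFR3 cells in phenol red-free RPMI-1640/10% FBS exposed to compound 24 h at 37° C., then Alamar Blue (resazurin) 4 h; fluorescence ex 540/em 590 nm. Run at 20000 cells/well (384-well) or 10000 cells/well (96-well); counterscreen identical but with 10 ng/ml murine IL3.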

[2] = test system: Ba/F3-KDR-transfected cells in the presence of 10 ng/ml murine IL3; assay: Ba/F3-KDR (plus IL3) cellular proliferation counterscreen, Alamar Blue; conditions: Mus musculus, plus 10 ng/ml murine IL3
Summary of the method: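 Ba/F3-KDR cells in RPMI-1640 with 10% FBS, 20000 (384-well) or 10000 (96-well) per well, given compound for 24 h at 37° C; Alamar Blue then added for 4 h and fluorescence read (ex 540/em 590 nm). Counterscreen run identically with 10 ng/ml murine IL3.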

[3] = test system: Ba/F3-Flt3-transfected cells in the presence of 10 ng/ml murine IL3; assay: Ba/F3-Flt3 (plus IL3) cellular proliferation counterscreen, Alamar Blue; conditions: Mus musculus; plus 10 ng/ml murine IL3; read-out: BAF3-FLT3 (PLUS IL3) 96 well pIC50 (converted)
[4] = plus 10 ng/ml murine IL3, 384 well, read-out: BAF3-FGFR 3 (PLUS IL3) 384 well pIC50 (converted)
[5] = plus IL3, 96 well, read-out: BAF3-FGFR 3 (PLUS IL3) 96 well pIC50 (converted)
[6] = read-out: BAF3-KDR (PLUS IL3) 96 well pIC50 (converted)
[7] = read-out: BAF3-KDR (PLUS IL3) 384 well pIC50 (converted)

Measured: IC50

COc1cc(OC)cc(N(CC2CC2)c2ccc3ncc(-c4cn(C)nn4)nc3c2)c1 [Compound 71]
> 10 µM: [1]; [4] | [1]; [5] | [2]; [6] | [2]; [7] | [3]

COc1cc(OC)cc(N(CC2CC2)c2ccc3ncc(-c4nnnn4C)nc3c2)c1 [Compound 83]
> 10 µM: [1]; [4] | [1]; [5] | [2]; [6] | [2]; [7] | [3]
